Results published in patent publication US11708367B2, “Compounds for the treatment of kinase-dependent disorders” (Exelixis, Inc., priority 2018, dated 2023).

Columns and labels:
Format in all cases: biochemical
Met = Met (Homo sapiens (Human), UniProt P08581); assay: Human Met kinase assay (33P radiometric, KinaseProfiler); details: 10 μM ATP, read-out: c-Met IC50
Method: (§1) Kinase activity and compound inhibition were investigated using the ^33P-Phosphoryl transfer radiometric kinase assay, performed using the KinaseProfiler™ service of Eurofins Pharma Discovery Services UK Limited. Dose-response experiments were performed using nine compound concentrations in a 96-well microtiter plate. For each assay, all compounds were prepared to a 50× final assay concentration (50 μM) in 100% DMSO, then diluted in a half-log series, with the final top concentration at 1 μM. This working stock of the compound was added to the assay well as the first component in the reaction, followed by the remaining components as detailed in the following assay protocols below. The positive control wells (100% kinase activity) contain all components of the reaction including 2% DMSO (control for solvent effects), except the compound of interest. Blank wells contain all components of the reaction, with the reference inhibitor, staurosporine. This reference compound was used to abolish kinase activity and generated the 0% kinase activity base-line. IC50 values were calculated by nonlinear regression analysis using the sigmoidal dose-response (variable slope) curve fit on XLFit version 5.3 (ID Business Solutions).
Human Met (residues R974-S1390 with A1209G and V1290L, 3.4 nM) was incubated with 8 mM MOPS pH 7.0, 0.2 mM EDTA, 250 µM KKKGQEEEYVFIE (SEQ ID NO. 45), 1 mM sodium orthovanadate, 5 mM […], 10 mM magnesium acetate, and 10 μM [γ-33P-ATP]. The reaction was initiated by the addition of the Mg/ATP mix. After incubation for 40 minutes at room temperature, the reaction was stopped by the addition of phosphoric acid to a concentration of 0.5%. A reaction aliquot of 10 μL was then spotted onto a P30 filtermat and washed four times for 4 minutes in 0.425% phosphoric acid and once in methanol prior to drying and scintillation counting. Incorporated 33P was measured using the Wallac Microbeta scintillation counter (Perkin Elmer).

Mer = Mer (Homo sapiens (Human), UniProt Q12866); assay: Human Mer kinase assay (33P radiometric, KinaseProfiler); details: 10 μM ATP
Method: as §1
Human Mer (residues R557-E882 with H628Q and R794A, 0.7 nM) was incubated with 8 mM MOPS pH 7.0, 0.2 mM EDTA, 30 mM NaCl, 250 μM GGMEDIYFEFMGGKKK (SEQ ID NO. 44), 10 mM magnesium acetate, and 10 μM [γ-33P-ATP]. The reaction was initiated by the addition of the Mg/ATP mix. After incubation for 40 minutes at room temperature, the reaction was stopped by the addition of phosphoric acid to a concentration of 0.5%. A reaction aliquot of 10 μL was then spotted onto a P30 filtermat and washed four times for 4 minutes in 0.425% phosphoric acid and once in methanol prior to drying and scintillation counting. Incorporated 33P was measured using the Wallac Microbeta scintillation counter (Perkin Elmer).

Human Axl = Human Axl (Homo sapiens (Human), UniProt P30530, Q764R); assay: Human AXL kinase assay (33P radiometric, KinaseProfiler); details: 10 μM ATP
Method: as §1
Human Axl (residues H473-A894 with Q764R, 161 nM) was incubated with 8 mM MOPS pH 7.0, 0.2 mM EDTA, 250 μM KKSRGDYMTMQIG (SEQ ID NO. 43), 10 mM magnesium acetate and 10 μM [γ-33P-ATP]. The reaction was initiated by the addition of the Mg/ATP mix. After incubation for 40 minutes at room temperature, the reaction was stopped by the addition of phosphoric acid to a concentration of 0.5%. A reaction aliquot of 10 μL was then spotted onto a P30 filtermat and washed four times for 4 minutes in 0.425% phosphoric acid and once in methanol prior to drying and scintillation counting. Incorporated ^33P was measured using the Wallac Microbeta scintillation counter (Perkin Elmer).

Mer, sequence (Q12866 557-882): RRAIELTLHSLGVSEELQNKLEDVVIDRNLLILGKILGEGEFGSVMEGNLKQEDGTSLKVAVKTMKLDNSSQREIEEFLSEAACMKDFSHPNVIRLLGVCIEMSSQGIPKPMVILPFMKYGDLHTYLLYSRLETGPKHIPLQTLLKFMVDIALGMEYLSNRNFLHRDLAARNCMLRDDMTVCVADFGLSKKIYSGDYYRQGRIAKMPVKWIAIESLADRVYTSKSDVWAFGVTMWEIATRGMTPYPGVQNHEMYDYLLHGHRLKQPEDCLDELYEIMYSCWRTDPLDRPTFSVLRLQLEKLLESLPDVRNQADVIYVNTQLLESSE
Human Axl, sequence (P30530 473-894 Q764R): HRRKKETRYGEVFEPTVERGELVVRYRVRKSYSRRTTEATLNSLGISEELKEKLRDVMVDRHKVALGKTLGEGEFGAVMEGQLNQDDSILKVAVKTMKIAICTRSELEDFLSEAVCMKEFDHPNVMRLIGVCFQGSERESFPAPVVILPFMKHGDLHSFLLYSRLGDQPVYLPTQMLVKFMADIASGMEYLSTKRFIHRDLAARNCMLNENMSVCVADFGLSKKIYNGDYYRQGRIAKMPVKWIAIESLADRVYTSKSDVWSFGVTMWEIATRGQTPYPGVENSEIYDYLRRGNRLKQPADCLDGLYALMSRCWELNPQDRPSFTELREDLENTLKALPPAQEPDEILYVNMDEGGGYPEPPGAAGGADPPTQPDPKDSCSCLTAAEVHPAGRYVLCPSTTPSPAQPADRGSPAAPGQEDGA

Row | SMILES | IC50 (Met) | IC50 (Mer) | IC50 (Human Axl)
1 | O=C(Nc1ccc(F)cc1)C1(C(=O)Nc2ccc(Oc3ncnc4cc(Br)cnc34)cc2)CC1 [Compound 13, 1-N-[4-(7-bromopyrido[3,2-d]pyrimidin-4-yl)oxyphenyl]-1-N′-(4-fluorophenyl)cyclo-propane-1,1-dicarboxamide] | 100 to 1000 nM | 100 to 1000 nM | 100 to 1000 nM
2 | O=C(Nc1ccc(F)cc1)C1(C(=O)Nc2ccc(Oc3ncnc4ccncc34)cc2)CC1 [Compound 95, 1-N′-(4-fluorophenyl)-1-N-(4-pyrido[4,3-d]pyrimidin-4-yloxyphenyl)cyclo-propane-1,1-dicarboxamide] | 100 to 1000 nM | 100 to 1000 nM | 100 to 1000 nM
3 | O=C(Nc1ccc(F)cc1)C1(C(=O)Nc2ccc(Oc3ncnc4cc(Cl)cnc34)cc2)CC1 [Compound 12, 1-N-[4-(7-chloropyrido[3,2-d]pyrimidin-4-yl)oxyphenyl]-1-N′-(4-fluorophenyl)cyclo-propane-1,1-dicarboxamide] | 100 to 1000 nM | 100 to 1000 nM | > 1000 nM
4 | O=C(Nc1ccc(F)cc1)C1(C(=O)Nc2ccc(Oc3ncnc4cc(Cl)ncc34)cc2)CC1 [Compound 101, 1-N-[4-(7-chloropyrido[4,3-d]pyrimidin-4-yl)oxy-phenyl]-1-N′-(4-fluorophenyl)cyclo-propane-1,1-dicarboxamide] | 100 to 1000 nM | 100 to 1000 nM | 100 to 1000 nM
5 | O=C(Nc1ccc(F)cc1)C1(C(=O)Nc2ccc(Oc3ncnc4cnc(Cl)cc34)cc2)CC1 [Compound 88, 1-N-[4-(6-chloropyrido[3,4-d]pyrimidin-4-yl)oxy-phenyl]-1-N′-(4-fluoro-phenyl)cyclopropane-1,1-dicarboxamide] | > 1000 nM | 100 to 1000 nM | 100 to 1000 nM
6 | N#Cc1ccc2ncnc(Oc3ccc(NC(=O)C4(C(=O)Nc5ccc(F)cc5)CC4)cc3)c2c1 [Compound 106, 1-N-[4-(6-cyanoquinazolin-4-yl)oxyphenyl]-1-N′-(4-fluorophenyl)cyclopropane-1,1-dicarboxamide] | > 1000 nM | 100 to 1000 nM | > 1000 nM
7 | COc1cnc2c(Oc3ccc(NC(=O)C4(C(=O)Nc5ccc(F)cc5)CC4)cc3)ncnc2c1 [Compound 16, 1-N′-(4-fluorophenyl)-1-N-[4-(7-methoxy-pyrido[3,2-d]pyrimidin-4-yl)oxyphenyl]cyclo-propane-1,1-dicarboxamide] | 10 to 100 nM | 100 to 1000 nM | 100 to 1000 nM
8 | O=C(Nc1ccc(F)cc1)C1(C(=O)Nc2ccc(Oc3ncnc4cnccc34)cc2)CC1 [Compound 85, 1-N′-(4-fluorophenyl)-1-N-(4-pyrido[3,4-d]pyrimidin-4-yloxyphenyl)cyclopropane-1,1-dicarboxamide] | 100 to 1000 nM | 100 to 1000 nM | 100 to 1000 nM
9 | Cc1cc2ncnc(Oc3ccc(NC(=O)C4(C(=O)Nc5ccc(F)cc5)CC4)cc3)c2nc1C [Compound 43, 1-N-[4-(6,7-dimethyl-pyrido[3,2-d]pyrimidin-4-yl)oxyphenyl]-1-N′-(4-fluorophenyl)cyclo-propane-1,1-dicarboxamide] | 100 to 1000 nM | 100 to 1000 nM | 100 to 1000 nM
